Data: publication PMC11504230, “Comparative Properties of Helical and Linear Amphipathicity of Peptides Composed of Arginine, Tryptophan, and Valine” (Antibiotics, 2024)
Ends that are not written are not given here.

Legend:
[1] = system: A. baumannii; format: cell-based; conditions: 18 h
Experimental: (§1) To examine antibacterial activity, we used minor modifications of a standard growth inhibition assay endorsed by the Clinical and Laboratory Standards Institute (CLSI), as previously described. Bacterial inocula for testing were prepared from exponential growth phase by diluting overnight cultures at 1:100 with fresh Tryptic soy broth (TSB) (Millipore Sigma, USA, Cat. No. 22092-500G) and incubating for an additional 3–4 h. Bacteria were spun at 3000× g for 10 min and the pellet was resuspended in phosphate-buffered saline (PBS) (Millipore Sigma, St Louis, MO, USA, Cat. No. P4417) to determine bacterial turbidity using a Den-1B densitometer (Grant Instruments, Beaver Falls, PA, USA) at 0.5 McFarland (unit of bacterial density) corresponding to […]. The prepared bacteria were incubated with each of the indicated peptides at a maximum test concentration of 16 µM and serially diluted in MHB2 and RPMI 1640 (Corning, NY, USA, Cat. No. 15-040-CM) at a 1:1 ratio. The plates were kept in an 8-drawer incubator for 18 h at 37 °C. A robotic system takes a plate from the drawer every hour and feeds a plate reader, which records the kinetics of bacterial growth at 570 nm to examine growth inhibition in real time (BioTek Instruments, Winooski, VT, USA). The minimum inhibitory concentration or MIC is the minimum peptide concentration that prevented bacterial growth, and it is objectively indicated by a flat (horizontal) line in the bacterial growth kinetic graph. Most assays are completed in duplicate. To assay for anti-biofilm activities, the 96-well plate from the growth inhibition assay is incubated for an additional 6 h (24 h total). The biomass was detected with crystal violet using a plate reader at A570, as previously described.
(§2) Figure 2 Comparative antibacterial activities of the H-RWV and L-RWV series. The 2 series were compared against MDR strains of 6 organisms as indicated. The test medium was composed of physiologically relevant RFM (60% RPMI plus 10% fetal bovine serum or FBS and 30% cation-adjusted MHB); endogenous AMP control was Indolicidin (Indo); small-molecule antibiotic controls were cefazolin, ceftazidime (Ceft), and meropenem (Mero). MIC, minimum inhibitory concentration with means represented by the black and red horizontal bars, which are used to determine the MOLs (minimum optimal lengths) indicated by the red and black arrows. (A–F) is based on the test organism as indicated. Data are representative of 2 independent trials. Corresponding Table 2 provides the mean MICs for the strains of each organism. The numbers stand for each peptide: 8, L/H-RWV8; 10, L/H-RWV10, etc.; red bar, mean MIC of L-RWV peptides and black bars, mean MIC of H-RWV peptides.

[2] = system: E. coli; format: cell-based; conditions: 18 h
Experimental: as §1, §2

[3] = system: S. aureus; format: cell-based; conditions: 18 h
Experimental: as §1, §2

[4] = system: K. pneumoniae; format: cell-based; conditions: 18 h
Experimental: as §1, §2

[5] = system: E. faecium; format: cell-based; conditions: 18 h
Experimental: as §1, §2

[6] = system: P. aeruginosa; format: cell-based; conditions: 18 h
Experimental: as §1, §2

[7] = system: Enterobacter spp.; format: cell-based; conditions: 18 h
Experimental: as §1, §2

[8] = system: S. aureus (SA719) biofilm; format: cell-based; conditions: 24 h
Experimental: as §1
Figure 3 Antibiofilm activities of the […] peptides. MBEC or minimum biofilm elimination concentration is the minimum concentration at which no biomass was detected by the crystal violet method. Standard deviations reflect differences between 2 independent trials. The dashed line is to clarify the mid-point between 0 and 5.

[9] = system: human red blood cells; assay: Red blood cell lysis; format: cell-based; conditions: H-RWV16 versus L-RWV12
Experimental: Lytic effects on human red blood cells were examined as previously described. Briefly, RBCs were separated by histopaque differential centrifugation using blood anonymously obtained from Vitalant (Pittsburgh, PA, USA). For RBC lysis assay, the isolated RBCs were resuspended in PBS at a concentration of 5%. The peptides were serially diluted 2-fold in 100 µL of PBS with a starting concentration of 32 µM. A volume of 100 µL of the prepared 5% RBC solution was then added for a final concentration of 2.5% RBC and incubated for 1 h. After incubation, the plates were centrifuged at 1000× g for 7 min and the supernatant was removed to measure its OD. In parallel, a standard curve of RBC lysis was generated by lysing the RBCs with deionized water at […] RBC dilutions of 10, 20, 30, 40, 50, 60, 70, 80, 90, and 100% to determine the percentage of RBC lysis in the test samples. Both the treated test samples and standard curve were read at A570. Three independent trials of the experiment were conducted.
Figure 4 Human RBC lytic effects of the […] peptides. Indolicidin (Indo) was used as control; RBC lysis was assayed in PBS as described in Methods. For clarity, the dashed line indicates the 10% lysis mark across the graph as a critical point between minor (<10%) and moderate (>10%) RBC lysis.

Sequence: RRRRRRRRWWWWVVVV [L-RWV16]
- Mean MIC, A. baumannii [1]: 21 ± 11 µM
- Mean MIC, E. coli [2]: 24 ± 10 µM
- Mean MIC, S. aureus [3]: 32 µM
- Mean MIC, K. pneumoniae [4]: 32 µM
- Mean MIC, E. faecium [5]: 32 µM
- Mean MIC, P. aeruginosa [6]: 32 µM
- Mean MIC, Enterobacter spp. [7]: 32 µM

Sequence: RRRRRRRWWWWVVV [L-RWV14]
- MBEC (minimum biofilm elimination concentration, no detectable biomass) [8]: 2.6 ± 1.2 µM
- Mean MIC, A. baumannii [1]: 7.4 ± 6.2 µM
- Mean MIC, E. coli [2]: 4.4 ± 2.7 µM
- Mean MIC, S. aureus [3]: 3 ± 1 µM
- Mean MIC, K. pneumoniae [4]: 3 ± 1 µM
- Mean MIC, E. faecium [5]: 19 ± 11 µM
- Mean MIC, P. aeruginosa [6]: 21 ± 9 µM
- Mean MIC, Enterobacter spp. [7]: 16.9 ± 14 µM

Sequence: RRRRRRWWWWVV [L-RWV12]
- MBEC (minimum biofilm elimination concentration, no detectable biomass) [8]: 2.5 ± 1.3 µM
- Mean MIC, E. coli [2]: 4.6 ± 1.6 µM

Sequence: RRRRRWWWWV [L-RWV10]
- Mean MIC, A. baumannii [1]: 8.5 ± 3.6 µM
- Mean MIC, E. coli [2]: 8 µM
- Mean MIC, S. aureus [3]: 26 ± 8 µM
- Mean MIC, K. pneumoniae [4]: 26 ± 8.2 µM
- Mean MIC, E. faecium [5]: 21 ± 9.5 µM
- Mean MIC, P. aeruginosa [6]: 22 ± 7.7 µM
- Mean MIC, Enterobacter spp. [7]: 32 µM

Sequence: RRRRWWWW [L-RWV8]
- Mean MIC, A. baumannii [1]: 10.2 ± 0.9 µM
- Mean MIC, E. coli [2]: 16 µM
- Mean MIC, S. aureus [3]: 20. ± 0.7 µM
- Mean MIC, K. pneumoniae [4]: 20 ± 7.4 µM
- Mean MIC, E. faecium [5]: 30 ± 5 µM
- Mean MIC, P. aeruginosa [6]: 30 ± 5.2 µM
- Mean MIC, Enterobacter spp. [7]: 30.2 ± 5.3 µM

Sequence: RRVWRWVRRVWRWVRR [H-RWV16]
- Lytic effect on human RBCs relative to L-RWV12 [9]: 3 fold

Sequence: RRVWRWVRRWWR [H-RWV12]
- MBEC (minimum biofilm elimination concentration, no detectable biomass) [8]: 2 µM
- Mean MIC, A. baumannii [1]: 6 ± 2.3 µM
- Mean MIC, E. coli [2]: 6.4 ± 2.2 µM
- Mean MIC, S. aureus [3]: 18 ± 12 µM
- Mean MIC, K. pneumoniae [4]: 18 ± 12 µM
- Mean MIC, E. faecium [5]: 28 ± 10 µM
- Mean MIC, P. aeruginosa [6]: 24 ± 8 µM
- Mean MIC, Enterobacter spp. [7]: 28 ± 7.4 µM

Sequence: RRVWRWVRRWWRRV [H-RWV14]
- MBEC (minimum biofilm elimination concentration, no detectable biomass) [8]: 1.7 ± 0.5 µM
- RBC lysis: 3%
- Mean MIC, A. baumannii [1]: 8 ± 5.6 µM
- Mean MIC, S. aureus [3]: 7.5 ± 12 µM
- Mean MIC, K. pneumoniae [4]: 7.5 ± 12 µM
- Mean MIC, E. faecium [5]: 17 ± 12 µM
- Mean MIC, P. aeruginosa [6]: 12 ± 4 µM
- Mean MIC, Enterobacter spp. [7]: 7.2 ± 5.6 µM

Sequence: RRWWRRVWRW [H-RWV10]
- Mean MIC, A. baumannii [1]: 22 ± 12 µM
- Mean MIC, E. coli [2]: 22 ± 8.8 µM
- Mean MIC, S. aureus [3]: 29 ± 6.5 µM
- Mean MIC, K. pneumoniae [4]: 29 ± 6.5 µM
- Mean MIC, E. faecium [5]: 19 ± 13 µM
- Mean MIC, P. aeruginosa [6]: 24 ± 8 µM
- Mean MIC, Enterobacter spp. [7]: 32 µM

Sequence: RRWWRRWW [H-RWV8]
- Mean MIC, A. baumannii [1]: 24 ± 9.2 µM
- Mean MIC, E. coli [2]: 24 ± 8.8 µM
- Mean MIC, S. aureus [3]: 29 ± 7 µM
- Mean MIC, K. pneumoniae [4]: 29 ± 7.1 µM
- Mean MIC, E. faecium [5]: 32 µM
- Mean MIC, P. aeruginosa [6]: 27 ± 7.5 µM
- Mean MIC, Enterobacter spp. [7]: 32 µM
